The results in this text go back to US20220288075A1, “METHOD AND COMPOSITION FOR TREATING PAIN” (ACADEMIA SINICA, priority 2019, published 2022).

Each structure is given as a SMILES string.

The test system of experiment [1] is RISS mice. Nature of the experiment: RISS (repeated and intermittent sound stress) model, sensory testing (von Frey, muscle withdrawal threshold, Hargreaves). The format is in vivo. To be noted: darapladib 10 mg/kg i.p. once daily throughout the RISS procedure, vs vehicle; FIG. 3N. The source says:
Sound stressors were applied as described^14, 43 with modification. Mice were placed (3 per cage) in a 20×30×15 cm bedding cage, which was kept 25 cm below a speaker, inside a 40×50×35 cm sound-insulated box. A speaker emitted pure tones at 5 frequencies (5, 11, 13, 15 and 19 kHz) with random amplitudes varied over time for each frequency (0, 20, 60, 90, and 100 dB sound). Each tone stimulus lasted for 5 or 10 sec in random order, and mice were stimulated continuously without interval. The sound stressors continued for 30 min as a set. In the original SS (sound stress) protocol, a set of 30-min stimuli was given once a day on days 1, 3, and 4 (FIG. 1A)^14. The RISS model intensified the stress protocol by increasing the stimulus frequency: a set of sound stimulus was repeated every 3 hours for 6 times overnight (from 16:00 to 10:00), followed by resting silence for 6 hours (from 10:00 to 16:00). The procedure was repeated on days 1, 3, and 4 as for the SS protocol. The control groups were placed in similar chambers for 4 days without stress exposure. Both groups of mice had access to food and water freely during the stress period. After the stimulus procedure, mice were returned to their original home cages in the animal care facility. In both the SS and RISS protocols, the day after completing the stress stimuli is called P0; the post-stress day 1, P1; and so on. In the experimental design of the […] single-day stimuli of intermittent SS (SISS), the day after SISS is called P′0; the post-stress day 1, P′1; and so on.
Animals were placed on an elevated mesh platform, and a 0.2-mN von Frey filament was applied to the plantar surface of both hind paws. A positive response was defined as lifting, shaking, guarding, or licking paws when the stimulus was applied. For each paw, the filament was applied 5 times at 30-sec intervals.
Mice were placed individually in Acrylic cubicles mounted on a glass surface maintained at 30° C. The test was performed after acclimatization. The thermal stimulus of the radiant heat was then applied to the plantar surface of each hind paw. Each mouse was tested in three sequential trials with an interval of 2-3 min. The assay cutoff was set at 30 sec to prevent tissue damage. Paw withdrawal latencies were calculated as the mean of three measures.
Muscle withdrawal thresholds were evaluated as described^46. […]
Analgesic drugs: Pregabalin (0.3, 1, 3 or 10 mg/kg bodyweight, i.p.; Toronto Research Chemicals), morphine (0.3, 1, 3 or 10 mg/kg bodyweight, i.p.), diclofenac (1, 3 or 10 mg/kg bodyweight, i.p.; Sigma-Aldrich) or vehicle (0.9% saline) was administered, and the effect of each drug was evaluated by testing 6 mice. […]

Experiment [2] deals with LPC16:0. In words: Serum LPC16:0 level in RISS mice at P0 by mass spectrometry. To be noted: darapladib 10 mg/kg i.p. once daily, P0, triple quadrupole MS, vs vehicle; FIG. 3N. The experiment is classed as in vivo. The procedure: Antioxidants: Systemic administration of NAC (200 mg/kg bodyweight, i.p.; Sigma-Aldrich) with Tempol (100 mg/kg bodyweight, i.p.; Sigma-Aldrich) or vehicle (phosphate buffered saline; PBS) was given 30 min before and after each RISS procedure at days 1, 3 and 4 (FIG. 3M)^48-50. A total of 6 doses of drug were given during the RISS protocol. Sensory testing was performed 1 hour after the last drug injection at P0 and at P4 and P7. PAF-AH inhibitors. Darapladib (Cayman, Ann Arbor, Mich.) was solubilized in DMSO: PBS containing 1% methyl-β-cyclodextrin (1:99) and given once daily by i.p. injection at 10 mg/kg body weight. Mice were randomly assigned to receive vehicle or darapladib for 5 consecutive days during RISS (FIG. 3M). […] Triple quadrupole mass spectrometry (QqQ MS) for absolute quantitative analysis of target lipids. Targeted analysis of LPC16:0, LPC18:0 and SM(d18:1/18:0) was measured by using an Agilent-1200 liquid chromatography system coupled to an Agilent-6410 QqQ MS with an ESI interface. […] Lipidomic profiling for relative quantitative analysis. Lipids were identified by comparing the LC/MS profiles of the metabolites of interest to that of a standard compound analyzed with identical conditions, and their relative abundance among samples was further evaluated. […] Collected data were processed with Progenesis QI (Waters) for lipid identification and relative quantitative analysis.

Turning to `CCN(CC)CCN(Cc1ccc(-c2ccc(C(F)(F)F)cc2)cc1)C(=O)Cn1c(SCc2ccc(F)cc2)nc(=O)c2c1CCC2` [darapladib, N-[2-(diethylamino)ethyl]-2-{2-[(4-fluorobenzyl)sulfanyl]-4-oxo-4,5,6,7-tetrahydro-1H-cyclopenta[d]pyrimidin-1-yl}-N-{[4′-(trifluoromethyl)biphenyl-4-yl]methyl}acetamide], the “development of RISS-induced chronic hypersensitivity (von Frey test)” value in experiment [1] was “prevented the development of chronic hypersensitivity”. In addition, in experiment [2], the “LPC16:0 production after RISS (serum level)” value is “significantly reduced”.
